Measurements published in patent US20060039883A1, “Biologically active compounds for the modification of bodily odours” (priority 2002, published 2006).

Key:
female sticklebacks = assay: Flow channel odour preference / mate choice experiment with sticklebacks; format: in vivo, Gasterosteus aculeatus
Experimental: The source of sticklebacks has been described (7). The flow channel set-up to evaluate mate choice determines odour preference, as a precursor of mate choice. Water was taken from the tank of a single male per trial and used both as stimulus (after addition of peptide(s)) and control (after addition of solvent) water. Peptides were added to the bottle with stimulus water just before the experiment at a final concentration of 1 mM; this becomes diluted to 5 nM in the water column passing through the test compartment. The following nona-peptides were used, MHC specificities indicated in brackets: […] (H2-K^b); […] and AAPDNRETF (H2-D^b); SYFPEITHI and SYIPSAEKI (H2-K^d). Peptides were synthesized by solid-phase 9-fluorenylmethoxycarbonyl chemistry. In experiments using a single peptide, AAPDNRETF was used. All experiments were performed in double-blinded fashion as described. Statistical analysis was performed with JMP 4.
The binding preferences for peptides of MHC molecules of sticklebacks are unknown; therefore synthetic peptides derived from endogenous mouse and viral proteins that are ligands for different mouse MHC molecules were used. Such peptides almost certainly appear foreign to sticklebacks irrespective of their MHC genotypes. Gravid females prefer water from a tank harbouring a male to that from a tank with fresh water (Experiment A, Table 1). Therefore, it was tested whether addition of peptide(s) to water from individual males would alter the outcome of mate choice. Gravid females were presented with water from single males with and without the addition of a mixture of five different peptides in the two columns of a flow-channel.

human beings = assay: Odour evaluation of paired aqueous solutions by test persons (similar or different); format: in vivo; conditions: 0.5 mM in phosphate buffered saline
Experimental: Several individuals were asked to evaluate the odour of a number of aqueous solutions. A prototypical MHC class I peptide (SLLPAIVEL), a known ligand of the A′02xx allele, or an equimolar mixture of the corresponding amino acids (S, L, P, A, I, V, E) were added to solvent (phosphate buffered saline) at final concentrations of 0.5 mM. These solutions were offered in pairs and the test persons were asked to decide whether the two solutions smelled similar or different. The probands easily distinguish peptides from amino acids.

[1] = Test pair Peptide vs. Amino acids

| Sequence | Time spent on side of water source 2 (female sticklebacks; Experiment B, gravid females, Fresh + 1 peptide vs Fresh + solvent, 5 nM in water column, n=24) [s] | Attractiveness of peptide in plain tank water (in words) (female sticklebacks; Experiment B, gravid females, plain tank water) | Time spent on side of water source 2 (female sticklebacks; Experiment C, gravid females, Male + 1 peptide vs Male + solvent, 5 nM, n=25) [s] | Time spent on side of water source 2 (female sticklebacks; Experiment C, gravid females, Male + 1 peptide vs Male + solvent, 5 nM, n=25, listed as one peptide) [s] | Time spent on side of water source 2 (female sticklebacks; Experiment E, non-gravid females, Male + 1 peptide vs Male + solvent, 5 nM, n=25) [s] | Preference for male water with vs without peptide (in words) (female sticklebacks; Experiment E, non-gravid fish, male water) | Excess time spent on the side of peptide-supplemented male water (female sticklebacks; gravid females, male water, excess over 300 sec) [s] | Probands scoring difference (human beings; [1]) | Probands scoring difference (fraction) (human beings; [1]) | Probands scoring difference (human beings; Test pair Peptide vs. Peptide) | Probands scoring difference (fraction) (human beings; Test pair Peptide vs. Peptide) |
| --- | --- | --- | --- | --- | --- | --- | --- | --- | --- | --- | --- |
| AAPDNRETF [1 peptide, synthetic nona-peptide, H2-D^b ligand; used in experiments using a single peptide] | 291.8 ± 24.6 | not attractive | 327.7 ± 24.8 | 327.7 ± 24.8 | 308.1 ± 23.5 | no preference was observed | 27.7 ± 12.4 |  |  |  |  |
| SLLPAIVEL [Peptide, prototypical MHC class I peptide, known ligand of the A*02xx allele] |  |  |  |  |  |  |  | 13/14 | (0.93) | 1/14 | (0.07) |
